Test results reported in patent US20250034079A1, “PROCESS FOR RECOVERING AMINOBENZOIC ACID FROM AN AQUEOUS MOTHER LIQUOR” (Covestro Deutschland AG, priority 2021, published 2025).
Converted amounts (≈) assume the structure as drawn.

Tests used:
[1] = Solubility of the extractant in water / aqueous phase after the extraction; conditions: for Solubility in water at RT: solubility of the extractant; for solubility: water
Procedure: (§1) The remaining mother liquor was extracted in one stage with various solvents (step (C)). […] The extraction was conducted at 30° C. The experiments were assessed by ascertaining the partition coefficients K (=ratio of the ortho-aminobenzoic acid [oAB] concentration in g/L in the organic phase [ORG=first alcoholic phase] to the aqueous phase [AQ=first aqueous phase]), the solubilities of the extractant in the aqueous phase after the extraction (=first aqueous phase) and—in four cases—the proportion by mass of organic secondary components (SC) in the organic extract phase (=first alcoholic phase) based on the totality of the organic secondary components in the two phases (=m(SC)ORG/m(SC)TOT). For this purpose, a separation was conducted by HPLC; organic impurities that elute earlier than ortho-aminobenzoic acid are referred to collectively as polar secondary components, and organic impurities that elute later than ortho-aminobenzoic acid as nonpolar secondary components.

[2] = One-stage extraction of ortho-aminobenzoic acid from crystallization mother liquor with various extractants (partition coefficient); conditions: pH 3.5±0.2, 8.7 g/L oAB, phase ratio organic to aqueous 0.5, 30° C.
Procedure: For the evaluation of the distribution of a component between two phases, the two phases were analyzed by HPLC-MS (with identical sample preparation and method). The coefficients of distribution were then determined as the ratio of peak areas for the same retention time.
as §1

Row | Structure (SMILES) | Solubility in water at RT [1] | solubility [1] [µg/mL] | also measured
1 | CCCCCCCC/C=C\CCCCCCCCO [Oleyl alcohol] | insoluble | – | –
2 | CC1CCCC1 [Methylcyclopentane] | insoluble | – | –
3 | CCCCOC(C)=O [Butyl acetate] | – | ~6000 | –
4 | CCC(C)=O [2-Butanone] | – | – | K = c(oAB)ORG/c(oAB)AQ (partition coefficient of ortho-aminobenzoic acid, organic to aqueous phase) [2]: 26.12
5 | CCCCCCCCCCO [1-Decanol] | – | 40 (≈ 253 µM) | –
